Assay results as given in ChEMBL document CHEMBL2440002, “The application of Heck reaction in the synthesis of guaianolide sesquiterpene lactones derivatives selectively inhibiting resistant acute leukemic cells” (Bioorg Med Chem Lett, 2013).

How the values were obtained:
HL-60 = test: Cytotoxicity against human HL60 cells after 72 hrs by MTT assay; type: functional, cell-based; details: HL-60, 72 h
[1] = Cytotoxicity against human HL60/A cells after 72 hrs by MTT assay; type: functional, cell-based
[2] = Induction of apoptosis in human HL60/A cells assessed as viable cells at 50 uM after 24 hrs by annexin V/propidium iodide based flow cytometry (reference value: 95.2 %); type: functional; details: read-out: Activity
[3] = Induction of apoptosis in human HL60/A cells assessed as early apoptotic cells at 50 uM after 24 hrs by annexin V/propidium iodide based flow cytometry (reference value: 2.66 %); type: functional
[4] = Induction of apoptosis in human HL60/A cells assessed as late apoptotic cells at 50 uM after 24 hrs by annexin V/propidium iodide based flow cytometry (reference value: 1.82 %); type: functional
[5] = Induction of apoptosis in human HL60/A cells assessed as necrotic cells at 50 uM after 24 hrs by annexin V/propidium iodide based flow cytometry (reference value: 0.282 %); type: functional
[6] = Induction of apoptosis in human HL60/A cells assessed as viable cells at 20 uM after 24 hrs by annexin V/propidium iodide based flow cytometry (reference value: 95.2 %); type: functional; details: read-out: Activity
[7] = Induction of apoptosis in human HL60/A cells assessed as early apoptotic cells at 20 uM after 24 hrs by annexin V/propidium iodide based flow cytometry (reference value: 2.66 %); type: functional
[8] = Induction of apoptosis in human HL60/A cells assessed as late apoptotic cells at 20 uM after 24 hrs by annexin V/propidium iodide based flow cytometry (reference value: 1.82 %); type: functional
[9] = Induction of apoptosis in human HL60/A cells assessed as necrotic cells at 20 uM after 24 hrs by annexin V/propidium iodide based flow cytometry (reference value: 0.282 %); type: functional
[10] = Induction of apoptosis in human HL60/A cells assessed as viable cells at 10 uM after 24 hrs by annexin V/propidium iodide based flow cytometry (reference value: 95.2 %); type: functional; details: read-out: Activity
[11] = Induction of apoptosis in human HL60/A cells assessed as late apoptotic cells at 10 uM after 24 hrs by annexin V/propidium iodide based flow cytometry (reference value: 1.82 %); type: functional
[12] = Induction of apoptosis in human HL60/A cells assessed as necrotic cells at 10 uM after 24 hrs by annexin V/propidium iodide based flow cytometry (reference value: 0.282 %); type: functional
[13] = Induction of apoptosis in human HL60/A cells assessed as early apoptotic cells at 10 uM after 24 hrs by annexin V/propidium iodide based flow cytometry (reference value: 2.66 %); type: functional

SMILES | IC50 (HL-60) [µM] | IC50 [1] [µM] | also measured
C=C1CC[C@H]2C(=C)CC[C@H]3/C(=C\c4ccc(F)cc4)C(=O)O[C@@H]3[C@@H]12 | > 50 | > 50 | 
CC[Si](CC)(CC)O[C@]1(C)CCC2=C(C)CC[C@H]3/C(=C/c4ccccc4F)C(=O)O[C@@H]3[C@H]21 | 32 | 7.8 | 
CC1=C2CC[C@@](C)(O)[C@@H]2[C@H]2OC(=O)/C(=C\c3ccc(Cl)cc3)[C@@H]2CC1 | > 50 | > 50 | 
CC1=C2CC[C@@](C)(O)[C@@H]2[C@H]2OC(=O)/C(=C\c3ccc(F)cc3)[C@@H]2CC1 | > 50 | > 50 | 
CC1=C2CC[C@@](C)(O)[C@@H]2[C@H]2OC(=O)/C(=C\c3ccccc3F)[C@@H]2CC1 | > 50 | > 50 | 
CC1=C2CC[C@@](C)(O)[C@@H]2[C@H]2OC(=O)/C(=C\c3cccc(F)c3)[C@@H]2CC1 | > 50 | > 50 | 
CCc1ccc(/C=C2\C(=O)O[C@H]3[C@H]2CCC(C)=C2CC[C@@](C)(O)[C@@H]23)cc1 | > 50 | > 50 | 
C=C1CC[C@H]2C(=C)CC[C@H]3/C(=C\c4ccc(Cl)cc4)C(=O)O[C@@H]3[C@@H]12 | > 50 | > 50 | 
C=C1CC[C@H]2C(=C)CC[C@H]3/C(=C\c4ccccc4F)C(=O)O[C@@H]3[C@@H]12 | > 50 | > 50 | 
C=C1CC[C@H]2C(=C)CC[C@H]3/C(=C\c4cccc(C(F)(F)F)c4)C(=O)O[C@@H]3[C@@H]12 | 24 | 17 | 
C=C1CC[C@H]2C(=C)CC[C@H]3/C(=C\c4ccc(CC)cc4)C(=O)O[C@@H]3[C@@H]12 | > 50 | > 50 | 
C=C1CC[C@H]2C(=C)CC[C@H]3/C(=C\c4cc(OC)c(OC)c(OC)c4)C(=O)O[C@@H]3[C@@H]12 | > 50 | > 50 | 
C=C1CC[C@H]2C(=C)CC[C@H]3/C(=C\c4ccccc4)C(=O)O[C@@H]3[C@@H]12 | > 50 | > 50 | 
C=C1CC[C@H]2C(=C)CC[C@H]3/C(=C/c4ccc(Cl)cc4)C(=O)O[C@@H]3[C@@H]12 | > 50 | > 50 | 
C=C1CC[C@H]2C(=C)CC[C@H]3/C(=C/c4ccc(F)cc4)C(=O)O[C@@H]3[C@@H]12 | > 50 | > 50 | 
C=C1CC[C@H]2C(=C)CC[C@H]3/C(=C/c4ccccc4F)C(=O)O[C@@H]3[C@@H]12 | > 50 | > 50 | 
C=C1CC[C@H]2C(=C)CC[C@H]3/C(=C/c4cccc(C(F)(F)F)c4)C(=O)O[C@@H]3[C@@H]12 | > 50 | > 50 | 
C=C1CC[C@H]2C(=C)CC[C@H]3/C(=C/c4ccc(CC)cc4)C(=O)O[C@@H]3[C@@H]12 | > 50 | > 50 | 

SMILES | IC50 (HL-60) [µM] | IC50 [1] [µM] | also measured
C=C1CC[C@H]2C(=C)CC[C@H]3/C(=C/c4cc(OC)c(OC)c(OC)c4)C(=O)O[C@@H]3[C@@H]12 | > 50 | > 50 | 
C=C1CC[C@H]2C(=C)CC[C@H]3/C(=C/c4ccccc4)C(=O)O[C@@H]3[C@@H]12 | > 50 | > 50 | 
C=C1C(=O)O[C@H]2[C@H]1CCC(C)=C1CC[C@@](C)(O[Si](CC)(CC)CC)[C@@H]12 | 8.4 | 7.2 | 
CC[Si](CC)(CC)O[C@]1(C)CCC2=C(C)CC[C@H]3/C(=C\c4ccc(Cl)cc4)C(=O)O[C@@H]3[C@H]21 | > 50 | > 50 | 
CC[Si](CC)(CC)O[C@]1(C)CCC2=C(C)CC[C@H]3/C(=C\c4ccc(F)cc4)C(=O)O[C@@H]3[C@H]21 | > 50 | > 50 | 
CC[Si](CC)(CC)O[C@]1(C)CCC2=C(C)CC[C@H]3/C(=C\c4ccccc4F)C(=O)O[C@@H]3[C@H]21 | > 50 | > 50 | 
CC[Si](CC)(CC)O[C@]1(C)CCC2=C(C)CC[C@H]3/C(=C\c4cccc(F)c4)C(=O)O[C@@H]3[C@H]21 | > 50 | > 50 | 
CCc1ccc(/C=C2/C(=O)O[C@H]3[C@H]2CCC(C)=C2CC[C@@](C)(O[Si](CC)(CC)CC)[C@@H]23)cc1 | 45 | 9.2 | 
CC[Si](CC)(CC)O[C@]1(C)CCC2=C(C)CC[C@H]3/C(=C/c4ccc(Cl)cc4)C(=O)O[C@@H]3[C@H]21 | > 50 | > 50 | 
CC[Si](CC)(CC)O[C@]1(C)CCC2=C(C)CC[C@H]3/C(=C/c4ccc(F)cc4)C(=O)O[C@@H]3[C@H]21 | > 50 | > 50 | 
CC[Si](CC)(CC)O[C@]1(C)CCC2=C(C)CC[C@H]3/C(=C/c4cccc(F)c4)C(=O)O[C@@H]3[C@H]21 | 52 | 10 | 
CCc1ccc(/C=C2\C(=O)O[C@H]3[C@H]2CCC(C)=C2CC[C@@](C)(O[Si](CC)(CC)CC)[C@@H]23)cc1 | > 50 | 19 | 
CC1=C2CC[C@@](C)(O)[C@@H]2[C@H]2OC(=O)/C(=C/c3ccc(Cl)cc3)[C@@H]2CC1 | > 50 | > 50 | 
CC1=C2CC[C@@](C)(O)[C@@H]2[C@H]2OC(=O)/C(=C/c3ccc(F)cc3)[C@@H]2CC1 | > 50 | > 50 | 
CC1=C2CC[C@@](C)(O)[C@@H]2[C@H]2OC(=O)/C(=C/c3ccccc3F)[C@@H]2CC1 | > 50 | > 50 | 
CC1=C2CC[C@@](C)(O)[C@@H]2[C@H]2OC(=O)/C(=C/c3cccc(F)c3)[C@@H]2CC1 | > 50 | 32 | 
CCc1ccc(/C=C2/C(=O)O[C@H]3[C@H]2CCC(C)=C2CC[C@@](C)(O)[C@@H]23)cc1 | 31 | 6.2 | viability at 50 µM [2]: 0.94%; Activity [3]: 1.5%; Activity [4]: 85.9%; Activity [5]: 11.7%; viability at 20 µM [6]: 66%; Activity [7]: 4.66%; Activity [8]: 23.8%; Activity [9]: 5.51%; viability at 10 µM [10]: 89.2%; Activity [11]: 6.61%; Activity [12]: 1.03%; Activity [13]: 3.14%
COc1cccc2c1C(=O)c1c(O)c3c(c(O)c1C2=O)C[C@@](O)(C(=O)CO)C[C@@H]3O[C@H]1C[C@H](N)[C@H](O)[C@H](C)O1 [DOXORUBICIN] | 0.07 | 7.8 | 
